Data as given in US20020028807A1, “Non-nucleoside reverse transcriptase inhibitors” (priority 2000, published 2002).
pEC50, pIC50: −log10 of the molar value.

What was measured:
[1] = target: T1, HIV-1 RT wild-type (WT) (Human immunodeficiency virus type 1 group M subtype B, UniProt P03366); test: Reverse transcriptase (RT) assay, wild-type enzyme; format: biochemical
T1 construct: an HIV RT clone pKRT2 containing only the RT p66 gene regulated by the lac operon/trc promoter; made in house; host or cells: E. coli JM109, vector pKK233-2
Description: (§1) Among the enzymes for which Human Immunodeficiency Virus (HIV-1) encodes is a reverse transcriptase (1), so-named because it transcribes a DNA copy from an RNA template. This activity can be quantitatively measured in a cell-free enzyme assay and is based upon the observation that reverse transcriptase is able to use a synthetic template poly r(C) primed with a biotinylated oligo d(G) to transcribe a radio-labelled DNA strand utilising 3H-dGTP as a substrate. The assay described below utilises the wild-type enzyme (which is the predominant form of the enzyme observed in patients infected with HIV-1) and can also be used with mutant RT enzymes (for example, Y181C, prepared by site-directed mutagenesis in which the tyrosine residue at codon 181 has been replaced by a cysteine residue) in analogous assay conditions. This assay allows compounds to be evaluated for their effectiveness at inhibiting the mutant enzymes.
(§2) Some HIV-1 IIIB clone BH10 RT mutants were provided by Dr. C.-K. Shih (Boehringer Ingelheim Pharmaceutials Inc., U.S.A.) in the vector pKK233-2 (Pharmacia). Briefly an HIV RT clone pKRT2 containing only the RT p66 gene regulated by the lac operon/trc promoter was obtained from Dr. W. Summers (Yale University) (2). A variety of specific amino acid substitutions were introduced into the wild-type RT gene by site-directed mutagenesis. RT clones were subcloned into the pKK233-2 bacterial expression vector. Clones provided included wild-type, Val106Ala, Tyr181Cys, Tyr188Cys, Tyr188Leu, Gly190Ala and Pro236Leu. Others were made in-house by site-directed mutagenesis of the pKK233-2 RT clones including Lys103Asn, Lys103Asn/Tyr181Cys, Lys103Asn/Leu100Ile, Lys103Asn/Pro225His, and Lys103Asn/Val108Ile.
(§3) Purification of recombinant reverse transcriptase was performed using a combination of methods previously described (3). A single colony from a fresh plate of transformed JM109 cells was used to initiate growth of a pre-culture grown o/n at 37° C. Two liters of growth medium were inoculated with this pre-culture. At OD600˜1.5 (5-6 h at 37° C.), RT gene expression was induced with IPTG (1 mM final), and the fermentation was continued for a few more hours at 37° C. After centrifugation, supernatants were discarded while cell pellets were pooled and stored at −80° C. until purification. Cells were thawed at 4° C. overnight and suspended in lysis buffer (MES 50 mM pH 6, EDTA 1 mM, 10% v/v glyerol, 0.02% w/v OBG, 0.02% w/v sodium azide). Lysozyme was added and the mixture was incubated on ice for 40 minutes. After homogenization using a bounce in presence of lysozyme and sonication, the cells were centrifuged for 30 minutes. Supernatant (S1) was saved and stored at 4° C. The centrifuged pellet was resuspended in extraction buffer (MES 50 mM pH 6, KPO4 50 mM pH 6, KCl 100 mM, 10% v/v glycerol, 0.02% w/v OBG, 0.02% w/v sodium axide) and stirred for 30 minutes at 4° C. This second mixture was centrifuged again and the supernatant (S2) was saved. The above procedure was repeated 2 more times saving supernatants S3 and S4 and one last extraction was performed overnight (S5). Polymin P (0.005% final) was added to the combined supernatants to remove nucleic acids. This solution was stirred for 75 minutes at 4° C. and centrifuged for 1 h. The supernatant (SS1) was precipitated on ice with 20% w/v ammonium sulfate and stirred for 1 h at 4° C. The mixture was then centrifuged and the resulting supernatant (SS2) was precipitated with additional 40% w/v ammonium sulfate (60% total), stirred for 1 h and centrifuged again. The final pellet (P1) was stored overnight at 4° C. before undergoing purification the following day. All steps of the purification were performed at 4° C. unless otherwise stated.
(§4) Pellet (P1) was resuspended into MES 50 mM pH 6, KPO4 10 mM pH 6, KCl 100 mM, 10% v/v glycerol, 0.02% w/v OBG, 0.02% w/v sodium azide. The suspension was dialysis against the same buffer overnight using 12-14 kD MWCO dialysis tubing. […]

[2] = target: T2, HIV-1 RT K103N (Human immunodeficiency virus type 1 group M subtype B, UniProt P03366, K702N); test: Reverse transcriptase (RT) assay, K103N mutant; format: biochemical
T2 construct: an HIV RT clone pKRT2 containing only the RT p66 gene regulated by the lac operon/trc promoter; made in house; host or cells: E. coli JM109, vector pKK233-2
Description: as §1, §2, §3, §4

[3] = target: T3, HIV-1 RT Y181C (Human immunodeficiency virus type 1 group M subtype B, UniProt P03366, Y780C); test: Reverse transcriptase (RT) assay, Y181C mutant; format: biochemical
T3 construct: an HIV RT clone pKRT2 containing only the RT p66 gene regulated by the lac operon/trc promoter; made in house; host or cells: E. coli JM109, vector pKK233-2
Description: as §1, §2, §3, §4

[4] = target: T4, HIV-1 RT V106A (Human immunodeficiency virus type 1 group M subtype B, UniProt P03366, V705A); test: Reverse transcriptase (RT) assay, V106A mutant; format: biochemical
T4 construct: an HIV RT clone pKRT2 containing only the RT p66 gene regulated by the lac operon/trc promoter; made in house; host or cells: E. coli JM109, vector pKK233-2
Description: as §1, §2, §3, §4

[5] = target: T5, HIV-1 RT Y188L (Human immunodeficiency virus type 1 group M subtype B, UniProt P03366, Y787L); test: Reverse transcriptase (RT) assay, Y188L mutant; format: biochemical
T5 construct: an HIV RT clone pKRT2 containing only the RT p66 gene regulated by the lac operon/trc promoter; made in house; host or cells: E. coli JM109, vector pKK233-2
Description: as §1, §2, §3, §4

[6] = target: T6, HIV-1 RT K103N/Y181C (Human immunodeficiency virus type 1 group M subtype B, UniProt P03366, K702N/Y780C); test: Reverse transcriptase (RT) assay, K103N/Y181C mutant; format: biochemical
T6 construct: an HIV RT clone pKRT2 containing only the RT p66 gene regulated by the lac operon/trc promoter; made in house; host or cells: E. coli JM109, vector pKK233-2
Description: as §1, §2, §3, §4

[7] = target: T7, HIV-1 RT K103N/P225H (Human immunodeficiency virus type 1 group M subtype B, UniProt P03366, K702N/P824H); test: Reverse transcriptase (RT) assay, K103N/P225H mutant; format: biochemical
T7 construct: an HIV RT clone pKRT2 containing only the RT p66 gene regulated by the lac operon/trc promoter; made in house; host or cells: E. coli JM109, vector pKK233-2
Description: as §1, §2, §3, §4

[8] = target: T8, HIV-1 RT K103N/V108I (Human immunodeficiency virus type 1 group M subtype B, UniProt P03366, K702N/V707I); test: Reverse transcriptase (RT) assay, K103N/V108I mutant; format: biochemical
T8 construct: an HIV RT clone pKRT2 containing only the RT p66 gene regulated by the lac operon/trc promoter; made in house; host or cells: E. coli JM109, vector pKK233-2
Description: as §1, §2, §3, §4

[9] = target: T9, HIV-1 RT K103N/L100I (Human immunodeficiency virus type 1 group M subtype B, UniProt P03366, K702N/L699I); test: Reverse transcriptase (RT) assay, K103N/L100I mutant; format: biochemical
T9 construct: an HIV RT clone pKRT2 containing only the RT p66 gene regulated by the lac operon/trc promoter; made in house; host or cells: E. coli JM109, vector pKK233-2
Description: as §1, §2, §3, §4

[10] = tested on: HIV coding for wild-type reverse transcriptase (WT RT); test: ELISA (p24) assay of HIV replication in C8166 cell culture, wild-type RT virus; format: cell-based, HIV-1; conditions: Human immunodeficiency virus 1, C8166, 72 h, read-out: EC50 WT RT
Method: (§5) Compounds of the invention were tested for their ability to inhibit HIV replication in cell culture in a 96-well plate assay. Complete RPMI 1640, consisting of RPMI 1640+10% fetal bovine serum, 10 μg/ml gentamycin and 10 μM β-mercaptoethanol was used for dilution of the compound as well as cell growth medium. The T lymphocyte cell line C8166 was infected at a multiplicity of infection of 0.001 with viruses coding for wild-type and mutant reverse transcriptase. Cells were then incubated for three days in the presence of serial dilutions of the compounds of the invention. The supernatant was pooled from eight replica wells and the concentration of extracellular p24 was determined using a commercially available HIV-1 p24 antigen assay kit (Beckman-Coulter®). The level of inhibition (% inhibition) was calculated with the following equation: [formula]

[11] = tested on: HIV coding for mutant reverse transcriptase K103N; test: ELISA (p24) assay of HIV replication in C8166 cell culture, K103N virus; format: cell-based, HIV-1; conditions: Human immunodeficiency virus 1, C8166, 72 h, read-out: EC50 K103N
Method: as §5

[12] = tested on: HIV coding for mutant reverse transcriptase Y181C; test: ELISA (p24) assay of HIV replication in C8166 cell culture, Y181C virus; format: cell-based, HIV-1; conditions: Human immunodeficiency virus 1, C8166, 72 h, read-out: EC50 Y181C
Method: as §5

[13] = tested on: HIV coding for mutant reverse transcriptase V106A; test: ELISA (p24) assay of HIV replication in C8166 cell culture, V106A virus; format: cell-based, HIV-1; conditions: Human immunodeficiency virus 1, C8166, 72 h, read-out: EC50 V106A
Method: as §5

[14] = tested on: HIV coding for mutant reverse transcriptase K103N/P225H; test: ELISA (p24) assay of HIV replication in C8166 cell culture, K103N/P225H virus; format: cell-based, HIV-1; conditions: Human immunodeficiency virus 1, C8166, 72 h, read-out: EC50 K103N/P225H
Method: as §5

[15] = tested on: HIV coding for mutant reverse transcriptase K103N/V108I; test: ELISA (p24) assay of HIV replication in C8166 cell culture, K103N/V108I virus; format: cell-based, HIV-1; conditions: Human immunodeficiency virus 1, C8166, 72 h, read-out: EC50 K103N/V108I
Method: as §5

[16] = tested on: HIV coding for mutant reverse transcriptase K103N/L100I; test: ELISA (p24) assay of HIV replication in C8166 cell culture, K103N/L100I virus; format: cell-based, HIV-1; conditions: Human immunodeficiency virus 1, C8166, 72 h, read-out: EC50 K103N/L100I
Method: as §5

Question: With `CCN1c2ncc(CCOc3cc[n+]([O-])c4ccccc34)cc2C(=O)Nc2c(C)ccnc21` [compound 12, 5,11-Dihydro-11-ethyl-4-methyl-8-{2-{(1-oxido-4-quinolinyl)oxy}ethyl}-6H-dipyrido[3,2-b:2′,3′-e][1,4]diazepin-6-one] as the compound, how does the pIC50 [1] read?
Answer: The pIC50 was 7.92.

Question: And the pIC50 [2]?
Answer: Its pIC50 is 7.51.

Question: What about the pIC50 [3] of the same compound?
Answer: Its pIC50 is 7.42.

Question: And the pIC50 [4]?
Answer: Its pIC50 is 6.92.

Question: What about the pIC50 [5] of the same compound?
Answer: The pIC50 was less than 5.00.

Question: And the pIC50 [6]?
Answer: Its pIC50 is 6.67.

Question: What about the pIC50 [7] of the same compound?
Answer: Its pIC50 is 7.42.

Question: And the pIC50 [8]?
Answer: Its pIC50 is 7.12.

Question: And the pIC50 [9]?
Answer: The pIC50 was 6.91.

Question: And the pEC50 [10]?
Answer: The pEC50 was 9.59.

Question: What about the pEC50 [11] of the same compound?
Answer: The pEC50 was 8.55.

Question: And the pEC50 [12]?
Answer: The pEC50 was 8.57.

Question: And the pEC50 [13]?
Answer: Its pEC50 is 7.91.

Question: What about the pEC50 [14] of the same compound?
Answer: The pEC50 was 8.82.

Question: What about the pEC50 [15] of the same compound?
Answer: The pEC50 was 8.30.

Question: What about the pEC50 [16] of the same compound?
Answer: Its pEC50 is 8.54.
